From patent US8211631B2, “In vitro model of spinal muscular atrophy” (Wisconsin Alumni Research Foundation, priority 2008, dated 2012)
“Also recorded” adds a separate entry of the source.

Key:
Format in all cases: cell-based, human
[1] = system: SMN protein in iPS-SMA cells; assay: Western blot analysis of SMN protein in drug-treated iPS-SMA cells; settings: corrected to beta-actin, two days after drug treatment, 1 mM valproic acid or tobramycin, n=3
Protocol: Protein isolation and western blot analysis. Cells were isolated, suspended in 1% Triton X-100 lysis buffer supplemented with 1% protease inhibitor cocktail (Sigma), triturated and centrifuged at 16,060 g for 10 min at 4° C. Ten to twenty micrograms of protein was separated on 12% SDS-polyacrylamide gel, transferred to a nitrocellulose membrane and probed with a primary antibody against SMN (mouse monoclonal), followed by a horseradish-peroxidase-conjugated secondary antibody (Promega), and then visualized using ECL chemiluminescence (Amersham). As a control, the membrane was stripped and re-probed for beta-actin. For semiquantitative analysis, SMN signal intensity was analyzed and corrected with respect to beta-actin.
Finally, we assessed whether SMN-inducing compounds could increase SMN levels in the iPS-SMA cellular context because this would be an important proof-of-principle for the further development of drug screens. SMN protein is found in both the cytoplasm and nuclear aggregate structures called gems, and the number of gems present is inversely correlated to disease severity (Coovert, D. D. et al. The survival motor neuron protein in spinal muscular atrophy, Hum. Mol. Genet. 6, 1205-1214, 1997). […] We are at present assessing gem formation in differentiating motor neurons and have shown that they can indeed be detected (FIG. 14A, B).

[2] = system: iPS-SMA cells; assay: Nuclear gem localization (SMN immunostaining) in iPS-SMA-derived neurons and astrocytes after drug treatment; settings: 1 mM valproic acid or tobramycin; 2 days of drug treatment; gems counted in 100 nuclei; P<0.05, ANOVA
Protocol: (§1) Immunocytochemistry. Cells were fixed in 4% paraformaldehyde or 1:1 acetone/methanol for 20 min at room temperature and rinsed with PBS. Nonspecific labeling was blocked and the cells were permeabilized with 5% normal goat serum and/or 5% normal donkey serum containing 0.2% Triton X-100 in PBS for 30 min at room temperature. Cells were rinsed with PBS and then incubated with primary antibodies for 1 h at room temperature or overnight at 4° C. Cells were then labeled with the appropriate fluorescently tagged secondary antibodies. Hoechst nuclear dye was used to label nuclei. Gems were counted in 100 nuclei, and positively stained neurons were counted and measured on five areas on each of three coverslips using Metamorph software. All data were analyzed using Prizm statistical software.
(§2) Finally, we assessed whether SMN-inducing compounds could increase SMN levels in the iPS-SMA cellular context because this would be an important proof-of-principle for the further development of drug screens. […] We are at present assessing gem formation in differentiating motor neurons and have shown that they can indeed be detected (FIG. 14A, B).

[3] = system: iPS-WT cells; assay: Nuclear gem localization (SMN immunostaining) in iPS-WT-derived neurons and astrocytes after drug treatment; settings: 1 mM valproic acid or tobramycin; 2 days of drug treatment
Protocol: as §1, §2

| SMILES | increase in SMN protein levels compared to untreated iPS-SMA cells [1] [fold] | number of gems in treated compared to untreated iPS-SMA cells [2] | gem localization in treated compared to untreated iPS-WT cells [3] |
| --- | --- | --- | --- |
| CCCC(CCC)C(=O)O [valproic acid] | 2 | significant increase in the number of gems; also recorded: significantly increased the number of gems | no significant increase in gem localization |
| NC[C@H]1O[C@H](O[C@H]2[C@H](O)[C@@H](O[C@H]3O[C@H](CO)[C@@H](O)[C@H](N)[C@H]3O)[C@H](N)C[C@@H]2N)[C@H](N)C[C@@H]1O [tobramycin] | 3 | significant increase in the number of gems; also recorded: significantly increased the number of gems | no significant increase in gem localization |
